Consider 11 molecules from US12269800B2, “Delivery of therapeutic alkaloid compounds” (priority 2021, dated 2025).

The structures appear in SMILES notation. Read-outs that look alike come from different tables or passages of the source. A value given as a limit tells only on which side of the number the result lay.

The nature of series [1]: Plasma Stability Assay of Example A3, mouse plasma. Conditions: % of prodrug compound remaining, 37° C.
Series [2] is described as follows: Plasma Stability Assay of Example A3, human plasma. Conditions: % of prodrug compound remaining, 37° C.
For series [3] the following is noted: 5 µM.
The conditions of series [4]: 5 µM. This is another data set of the same source.
Experimental: 50 uL aliquots of positive controls and test compounds spiked into rat or human plasma (n=2) were added to a pre-warmed plate (37° C.) and shaken at 50 rpm. At each respective time point, the reaction was stopped by adding 500 μL of acetonitrile containing internal standards (100 nM aprozolam, 200 nM caffeine, 100 nM tolbutamide). All samples were vortexed for 10 minutes, followed by centrifugation at 3,220 g for 30 minutes to precipitate proteins. 100 μL of the supernatant is transferred to a new plate. The supernatant will be diluted with ultrapure water according to the LC-MS signal response and peak shape.

On to `COc1ccc([C@@]23CCC(OC(=O)c4cccc(N(C)C)c4)=C[C@@H]2N(C)CC3)cc1OC` [Compound 307, [(3aS,7aS)-3a-(3,4-dimethoxyphenyl)-1-methyl-3,4,5,7a-tetrahydro-2H-indol-6-yl] 3-(dimethylamino)benzoate], for which the “Mouse Plasma Prodrug (%)” value in series [1] (0.0 min) came out at 100.0%; in series [1] (30 min) it was 3.8%; in series [1] (60 min), 0.1%; in series [1] (120 min) it was 0.0%; in series [1] (240 min) it was 0.0%. In addition, the results for the “Human Plasma Prodrug (%)” value in series [2] (0.0 min) and in series [2] (60 min) were 100.0% and 83.0%, respectively.

As for `COc1ccc([C@@]23CCC(OC(=O)C(C)(C)C)=C[C@@H]2N(C)CC3)cc1OC` [Compound 309, [(3aS,7aS)-3a-(3,4-dimethoxyphenyl)-1-methyl-3,4,5,7a-tetrahydro-2H-indol-6-yl] 2,2-dimethylpropanoate], the “Mouse Plasma Prodrug (%)” value stood at 100.0% in series [1] (0.0 min), 8.2% in series [1] (60 min), 0.0% in series [1] (120 min) and 0.0% in series [1] (240 min). Besides, the “Human Plasma Prodrug (%)” value amounted to 100.0% in series [2] (0.0 min), 3.6% in series [2] (120 min) and 2.0% in series [2] (240 min).

For `COCCOCCC(=O)OC1=C[C@@H]2N(C)CC[C@]2(c2ccc(OC)c(OC)c2)CC1` [Compound 405, (3aS,7aS)-3a-(3,4-dimethoxyphenyl)-1-methyl-2,3,3a,4,5,7a-hexahydro-1H-indol-6-yl 3-(2-methoxyethoxy)propanoate], the “Rat Plasma Prodrug (%)” value is 100.0% in series [3] (0 min); 0.1% in series [3] (10 min); 0.0% in series [3] (30 min); 0.1% in series [3] (60 min); 0.0% in series [3] (120 min); 0.0% in series [3] (240 min). Further, the “Human Plasma Prodrug (%)” value in series [4] (0 min) is 100.0%; in series [4] (10 min) it was over 99%; in series [4] (30 min) it was 95.0%; in series [4] (60 min), 87.0%; in series [4] (120 min), 65.7%; in series [4] (240 min), 46.7%.

Turning to `CCC(CC)C(=O)OC1=C[C@@H]2N(C)CC[C@]2(c2ccc(OC)c(OC)c2)CC1` [Compound 426, (3aS,7aS)-3a-(3,4-dimethoxyphenyl)-1-methyl-2,3,3a,4,5,7a-hexahydro-1H-indol-6-yl 2-ethylbutanoate], the “Rat Plasma Prodrug (%)” value is recorded as 100.0% in series [3] (0 min); 70.2% in series [3] (10 min); 33.2% in series [3] (30 min); 9.5% in series [3] (60 min); 0.9% in series [3] (120 min); 0.1% in series [3] (240 min). In addition, the “Human Plasma Prodrug (%)” value in series [4] (0 min) turned out to be 100.0%; in series [4] (10 min), 87.1%; in series [4] (30 min), 80.3%; in series [4] (60 min) it was 79.2%; in series [4] (120 min) it was 73.6%; in series [4] (240 min), 66.4%.

As to `COc1ccc([C@@]23CCC(OC(=O)CCC(C)C)=C[C@@H]2N(C)CC3)cc1OC` [Compound 399, (3aS,7aS)-3a-(3,4-dimethoxyphenyl)-1-methyl-2,3,3a,4,5,7a-hexahydro-1H-indol-6-yl 4-methylpentanoate], the “Rat Plasma Prodrug (%)” value in series [3] (0 min) is recorded as 100.0%; in series [3] (10 min) it was 0.0%; in series [3] (30 min) it was 0.0%; in series [3] (60 min), 0.0%; in series [3] (120 min), 0.0%; in series [3] (240 min) it was 0.0%. Moreover, the “Human Plasma Prodrug (%)” value in series [4] (0 min) is given as 100.0%; in series [4] (10 min), 5.6%; in series [4] (30 min), 1.1%; in series [4] (60 min), 0.5%; in series [4] (120 min), 0.3%; in series [4] (240 min), 0.2%.

Take `CCCCC(CC)C(=O)OC1=C[C@@H]2N(C)CC[C@]2(c2ccc(OC)c(OC)c2)CC1` (stereo partly drawn) [Compound 401, (3aS,7aS)-3a-(3,4-dimethoxyphenyl)-1-methyl-2,3,3a,4,5,7a-hexahydro-1H-indol-6-yl 2-ethylhexanoate]: the “Rat Plasma Prodrug (%)” value was 100.0% in series [3] (0 min); 84.5% in series [3] (10 min); 55.8% in series [3] (30 min); 33.8% in series [3] (60 min); 16.3% in series [3] (120 min); 3.3% in series [3] (240 min). Besides, the “Human Plasma Prodrug (%)” value in series [4] (0 min) is on record as 100.0%; in series [4] (10 min) it was 95.9%; in series [4] (30 min) it was over 99%; in series [4] (60 min), 96.6%; in series [4] (120 min) it was 94.4%; in series [4] (240 min), 93.4%.

For `CCCCCC(C)C(=O)OC1=C[C@@H]2N(C)CC[C@]2(c2ccc(OC)c(OC)c2)CC1` (stereo partly drawn) [Compound 400, (3aS,7aS)-3a-(3,4-dimethoxyphenyl)-1-methyl-2,3,3a,4,5,7a-hexahydro-1H-indol-6-yl 2-methylheptanoate], the “Rat Plasma Prodrug (%)” value was determined as 100.0% in series [3] (0 min); 12.6% in series [3] (10 min); 0.6% in series [3] (30 min); 0.1% in series [3] (60 min); 0.1% in series [3] (120 min); 0.0% in series [3] (240 min). The “Human Plasma Prodrug (%)” value in series [4] (0 min) is on record as 100.0%; in series [4] (10 min), 34.7%; in series [4] (30 min), 11.6%; in series [4] (60 min), 5.2%; in series [4] (120 min) it was 2.3%; in series [4] (240 min), 1.9%.

Consider `COc1ccc([C@@]23CCC(OC(=O)CCN)=C[C@@H]2N(C)CC3)cc1OC` [Compound 397, (3aS,7aS)-3a-(3,4-dimethoxyphenyl)-1-methyl-2,3,3a,4,5,7a-hexahydro-1H-indol-6-yl 3-aminopropanoate], for which the “Rat Plasma Prodrug (%)” value was 100.0% in series [3] (0 min); 10.5% in series [3] (10 min); 0.5% in series [3] (30 min); 0.1% in series [3] (60 min); 0.1% in series [3] (120 min); 0.1% in series [3] (240 min). The “Human Plasma Prodrug (%)” value amounted to 100.0% in series [4] (0 min); 2.2% in series [4] (10 min); 0.5% in series [4] (30 min); 0.1% in series [4] (60 min); 0.2% in series [4] (120 min); 0.0% in series [4] (240 min).

As to `CCC(C)(CC)C(=O)OC1=C[C@@H]2N(C)CC[C@]2(c2ccc(OC)c(OC)c2)CC1` [Compound 430, (3aS,7aS)-3a-(3,4-dimethoxyphenyl)-1-methyl-2,3,3a,4,5,7a-hexahydro-1H-indol-6-yl 2-ethyl-2-methylbutanoate], the “Rat Plasma Prodrug (%)” value in series [3] (0 min) is reported as 100.0%; in series [3] (10 min) it was 98.2%; in series [3] (30 min) it was 98.3%; in series [3] (60 min) it was 97.1%; in series [3] (120 min), 94.1%; in series [3] (240 min) it was 92.8%. Further, the “Human Plasma Prodrug (%)” value in series [4] (0 min) was 100.0%; in series [4] (10 min), over 99%; in series [4] (30 min), over 99%; in series [4] (60 min) it was over 99%; in series [4] (120 min) it was over 99%; in series [4] (240 min), 95.9%.

`CCCC(CC)CC(=O)OC1=C[C@@H]2N(C)CC[C@]2(c2ccc(OC)c(OC)c2)CC1` (stereo partly drawn) [Compound 398, (3aS,7aS)-3a-(3,4-dimethoxyphenyl)-1-methyl-2,3,3a,4,5,7a-hexahydro-1H-indol-6-yl 3-ethylhexanoate]: the “Rat Plasma Prodrug (%)” value in series [3] (0 min) is reported as 100.0%; in series [3] (10 min), 2.8%; in series [3] (30 min), 0.7%; in series [3] (60 min), 0.1%; in series [3] (120 min) it was 0.0%; in series [3] (240 min), 0.0%. The “Human Plasma Prodrug (%)” value worked out at 100.0% in series [4] (0 min); 96.4% in series [4] (10 min); 85.0% in series [4] (30 min); 72.4% in series [4] (60 min); 51.6% in series [4] (120 min); 25.5% in series [4] (240 min).

As to `CCC(C)(C)C(=O)OC1=C[C@@H]2N(C)CC[C@]2(c2ccc(OC)c(OC)c2)CC1` [Compound 428, (3aS,7aS)-3a-(3,4-dimethoxyphenyl)-1-methyl-2,3,3a,4,5,7a-hexahydro-1H-indol-6-yl 2,2-dimethylbutanoate], the “Rat Plasma Prodrug (%)” value is 100.0% in series [3] (0 min); 90.3% in series [3] (10 min); 69.9% in series [3] (30 min); 41.7% in series [3] (60 min); 18.1% in series [3] (120 min); 3.9% in series [3] (240 min). In addition, the “Human Plasma Prodrug (%)” value in series [4] (0 min) amounted to 100.0%; in series [4] (10 min) it was 82.9%; in series [4] (30 min), 74.5%; in series [4] (60 min), 69.1%; in series [4] (120 min) it was 56.8%; in series [4] (240 min), 46.0%.
